One experiment deals with FFAR1 A83F (Homo sapiens, UniProt O14842, A83F). Put plainly: Mutagenesis, IP accumulation, FFAR1 A83F mutant. Format: cell-based.
The test system of experiment [1] is FFAR1 mutants (Y12, E65, A66, K259, L262). Put plainly: Mutagenesis of the extracellular binding site, IP accumulation. Format: cell-based, human.
A further experiment has as its system FFAR1 K259A. Put plainly: Mutagenesis, IP accumulation, FFAR1 K259A mutant. Format: cell-based, human.
For a further experiment, the target named is T1, FFAR4 (Homo sapiens, UniProt Q5NUL3).
T1 sequence (Q5NUL3 1-361): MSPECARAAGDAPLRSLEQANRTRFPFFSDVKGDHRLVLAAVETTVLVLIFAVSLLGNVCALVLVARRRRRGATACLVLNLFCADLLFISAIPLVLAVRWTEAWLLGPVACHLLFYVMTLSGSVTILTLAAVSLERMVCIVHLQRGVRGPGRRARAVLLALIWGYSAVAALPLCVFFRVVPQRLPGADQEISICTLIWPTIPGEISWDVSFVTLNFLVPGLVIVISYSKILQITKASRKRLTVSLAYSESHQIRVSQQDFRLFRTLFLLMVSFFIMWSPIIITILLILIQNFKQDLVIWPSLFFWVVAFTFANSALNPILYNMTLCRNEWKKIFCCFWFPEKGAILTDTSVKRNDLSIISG
The experiment is described as follows: IP accumulation assay in transiently transfected COS7 cells, FFAR4. Format: cell-based.

For a further experiment, the target named is FFAR1 (Homo sapiens, UniProt O14842). Put plainly: IP accumulation assay in transiently transfected COS7 cells, FFAR1. The class given is cell-based. Conditions: for improved potency on FFAR1: as compared to the unsubstituted phenyl 54; for improved potency on FFAR1 / reduction of potency on FFAR1: range for the group.

SMILES strings stand for the structures.

Sequence of FFAR1 (O14842 whole entry): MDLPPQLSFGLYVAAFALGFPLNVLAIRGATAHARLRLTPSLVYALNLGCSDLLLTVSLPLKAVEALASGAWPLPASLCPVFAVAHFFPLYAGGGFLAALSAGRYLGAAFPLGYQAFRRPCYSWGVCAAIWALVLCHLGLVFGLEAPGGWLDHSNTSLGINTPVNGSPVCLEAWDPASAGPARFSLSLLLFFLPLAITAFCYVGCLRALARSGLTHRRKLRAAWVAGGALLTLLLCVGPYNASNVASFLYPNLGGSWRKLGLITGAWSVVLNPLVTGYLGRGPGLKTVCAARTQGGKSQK
Sequence of FFAR1 A83F (O14842 whole entry A83F): as the sequence (O14842 whole entry) above, with A83F counted along it

Regarding `COc1ccc(F)c(-c2ccc(COc3ccc4c(c3)[C@]3(CC4)C[C@H]3C(=O)O)cc2[C@@H]2CCCC2(C)C)c1` [AM-5262], at FFAR1 A83F, the “impact of A83F mutation on activity” value is “none”. Besides, the “effect of extracellular-site mutations on activity” value in experiment [1] is “no effect on compound potency”. In addition, the “change in efficacy, K259A versus wild-type” value in the experiment on FFAR1 K259A is listed as −32%.
With `Cc1cc(=O)oc2cc(OCc3nc(N)nc(Nc4ccc(C5CC5)cc4)n3)ccc12` [compound 7], the “activity on FFAR4” value on FFAR4 is “entirely inactive on FFAR4”.
On to `Cc1ccc(Nc2nc(N)nc(COc3ccc4c(C)cc(=O)oc4c3)n2)cc1C` [compound 13], for which, at FFAR4, the “activity on FFAR4” value is “entirely inactive on FFAR4”.
For the molecule `Cc1cc(=O)oc2cc(OCc3nc(N)nc(Nc4cccc(O)c4)n3)ccc12` [compound 17], the “activity on FFAR1” value at FFAR1 was “inactive”.
Regarding `Cc1cc(=O)oc2cc(OCc3nc(N)nc(Nc4ccc(O)cc4)n3)ccc12` [compound 18], the “activity on FFAR1” value on FFAR1 is “inactive”.
For `Cc1ccc(Nc2nc(N)nc(COc3cccc(N4CCCC4=O)c3)n2)cc1Cl` [compound 28], the “loss of potency on FFAR1” value at FFAR1 (versus 4-methylchroman-2-one compound 11) is around 6 fold.
Consider `Cc1ccc(Nc2nc(N)nc(COc3cc(N4CCCC4=O)cc(C(F)(F)F)c3)n2)cc1Cl` [compound 38], for which, on FFAR1, the “selectivity for FFAR1 over FFAR4” value is “selective”.
Consider `Cc1ccc(Nc2nc(N)nc(COc3cc(Cl)cc(N4CCCC4=O)c3)n2)cc1Cl` [compound 42], for which, on FFAR1 (versus compound 28), the “gain of potency on FFAR1” value was 5 fold.
`Cc1ccc(Nc2nc(N)nc(COc3cc(OC(F)(F)F)cc(N4CCCC4=O)c3)n2)cc1Cl` [compound 46]: the “selectivity for FFAR4 over FFAR1” value on FFAR4 was “selective”.
`Cc1cc(OCc2nc(N)nc(NCCc3ccccc3)n2)cc(N2CCCC2=O)c1` [compound 54]: the “increase of efficacy on FFAR1” value at FFAR1 (as compared to compound 43) is given as 44%.
As to `Cc1cc(OCc2nc(N)nc(NCCc3cccc(Cl)c3)n2)cc(N2CCCC2=O)c1` [compound 58], the “improved potency on FFAR1” value at FFAR1 was 2–8 fold.
As to `Cc1cccc(CCNc2nc(N)nc(COc3cc(C)cc(N4CCCC4=O)c3)n2)c1` [compound 59], the “improved potency on FFAR1” value on FFAR1 is reported as 2–8 fold.
In the case of `COc1cccc(CCNc2nc(N)nc(COc3cc(C)cc(N4CCCC4=O)c3)n2)c1` [compound 60], the “improved potency on FFAR1” value on FFAR1 is 2–8 fold.
Consider `Cc1cc(OCc2nc(N)nc(NCCc3cccc(C(F)(F)F)c3)n2)cc(N2CCCC2=O)c1` [compound 61], for which the “improved potency on FFAR1” value on FFAR1 was 2–8 fold.
Turning to `Cc1cc(OCc2nc(N)nc(NCCc3cccc(OC(F)F)c3)n2)cc(N2CCCC2=O)c1` [compound 62], at FFAR1, the “improved potency on FFAR1” value is on record as 2–8 fold.
Turning to `Cc1cc(OCc2nc(N)nc(NCCc3ccccc3F)n2)cc(N2CCCC2=O)c1` [compound 70], at FFAR1, the “selectivity for FFAR1 over FFAR4” value is “highly selective for FFAR1”.
In the case of `Cc1cc(OCc2nc(N)nc(NCCc3ccccc3N3CCOCC3)n2)cc(N2CCCC2=O)c1` [compound 74], at FFAR1, the “activity on FFAR1” value was “entirely inactive”. Also, the “selectivity for FFAR4 over FFAR1” value at FFAR4 is “FFAR4-selective”.
On to `Cc1cc(OCc2nc(N)nc(NCCc3cc(F)ccc3F)n2)cc(N2CCCC2=O)c1` [compound 75], for which the “loss of efficacy on FFAR1” value at FFAR1 (versus compound 54) is −26%.
Turning to `Cc1cc(OCc2nc(N)nc(NCCc3cc(C)ccc3F)n2)cc(N2CCCC2=O)c1` [compound 76], on FFAR1, the “selectivity for FFAR1 over FFAR4” value is listed as “highly selective for FFAR1”.
Consider `Cc1cc(OCc2nc(N)nc(NCCc3cc(Cl)ccc3Cl)n2)cc(N2CCCC2=O)c1` [compound 83], for which, in experiment [1], the “effect of extracellular-site mutations on activity” value is listed as “profound effect”.
For the molecule `Cc1cc(OCc2nc(N)nc(NCCc3ccc(Cl)cc3Cl)n2)cc(N2CCCC2=O)c1` [compound 84], the “reduction of potency on FFAR1” value on FFAR1 (versus compound 54) is 2−3 fold.
The same measure, in the same setting: next, `Cc1cc(OCc2nc(N)nc(NCCc3ccc(C)cc3C)n2)cc(N2CCCC2=O)c1` [compound 85]: 2−3 fold.
As for `COc1ccc(Cl)cc1CCNc1nc(N)nc(COc2cc(C)cc(N3CCCC3=O)c2)n1` [compound 86], the “reduction of potency on FFAR1” value on FFAR1 (versus compound 54) was 2−3 fold.
Still for that read-out and setting: next, `Cc1cc(OCc2nc(N)nc(NCCc3c(C)cccc3C)n2)cc(N2CCCC2=O)c1` [compound 87]: 2−3 fold.
In the case of `Cc1cc(OCc2nc(N)nc(NCC3(c4cccc(Cl)c4)CC3)n2)cc(N2CCCC2=O)c1` [compound 90], at FFAR4, the “activity on FFAR4” value was “loss of activity on FFAR4”.
For `Cc1cc(OCc2nc(N)nc(NC3(Cc4cccc(Cl)c4)CC3)n2)cc(N2CCCC2=O)c1` [compound 92], the “activity on FFAR4” value on FFAR4 is “loss of activity on FFAR4”.
On the same count and under the same terms, next, `Cc1cc(OCc2nc(N)nc(NCC(c3c(F)cccc3F)N(C)C)n2)cc(N2CCCC2=O)c1` (centres unmarked) [compound 93]: “loss of activity on FFAR4”; `Cc1cc(OCc2nc(N)nc(NCC(c3cccc(Cl)c3)N3CCCC3)n2)cc(N2CCCC2=O)c1` (centres unmarked) [compound 94]: “loss of activity on FFAR4”.
Turning to `Cc1cc(OCc2nc(N)nc(NCCc3cccc4c3OC(F)(F)O4)n2)cc(N2CCCC2=O)c1` [compound 101], the “selectivity for FFAR1 over FFAR4” value on FFAR1 was “highly FFAR1-selective”.

For the origin of these results see article PMC9743428 (ACS Medicinal Chemistry Letters, 2022).
